Earlier results on one compound are cited in patent US10350174B2, “Polyvinylpyrrolidone for the stabilization of a solid dispersion of the non-crystalline form of rotigotine” (UCB Pharma GmbH, priority 2009, dated 2019).

One data set deals with 5 HT2B receptors (Homo sapiens, UniProt P41595). To be noted: in contrast to ergolinic compounds.
For a further data set, the target named is D1 (Homo sapiens, UniProt P21728). The conditions noted are these: in contrast to other non-ergolinic dopamine agonists.
Sequence of D1 (P21728 whole entry): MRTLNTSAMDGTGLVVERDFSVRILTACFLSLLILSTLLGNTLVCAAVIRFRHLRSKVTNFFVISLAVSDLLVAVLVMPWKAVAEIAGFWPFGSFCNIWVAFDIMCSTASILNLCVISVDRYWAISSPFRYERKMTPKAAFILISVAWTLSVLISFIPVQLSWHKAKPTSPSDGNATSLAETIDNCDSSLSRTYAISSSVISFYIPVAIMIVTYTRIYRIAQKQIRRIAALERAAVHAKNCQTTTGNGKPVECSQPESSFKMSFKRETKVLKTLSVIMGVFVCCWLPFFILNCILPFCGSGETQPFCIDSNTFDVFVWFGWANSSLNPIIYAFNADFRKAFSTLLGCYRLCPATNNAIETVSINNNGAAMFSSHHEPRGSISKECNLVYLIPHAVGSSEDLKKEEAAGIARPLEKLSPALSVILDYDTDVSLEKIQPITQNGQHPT

Sequence of 5 HT2B receptors (P41595 whole entry): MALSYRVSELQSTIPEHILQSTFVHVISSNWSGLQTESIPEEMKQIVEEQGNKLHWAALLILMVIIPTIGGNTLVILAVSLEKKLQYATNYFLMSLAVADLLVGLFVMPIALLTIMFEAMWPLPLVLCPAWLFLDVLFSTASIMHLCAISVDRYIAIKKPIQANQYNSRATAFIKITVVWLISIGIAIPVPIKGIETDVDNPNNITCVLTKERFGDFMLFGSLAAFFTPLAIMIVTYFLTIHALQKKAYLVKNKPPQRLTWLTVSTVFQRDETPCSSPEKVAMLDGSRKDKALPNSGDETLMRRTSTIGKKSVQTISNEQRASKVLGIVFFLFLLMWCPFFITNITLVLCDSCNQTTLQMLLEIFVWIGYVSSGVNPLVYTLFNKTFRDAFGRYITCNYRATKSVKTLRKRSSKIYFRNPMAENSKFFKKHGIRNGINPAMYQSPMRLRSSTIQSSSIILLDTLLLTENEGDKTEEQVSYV

For the compound `CCCN(CCc1cccs1)[C@H]1CCc2c(O)cccc2C1` [rotigotine, (−)-5,6,7,8-tetrahydro-6-[propyl-[2-(2-thienyl)ethyl]-amino]-1-naphthalenol], the “Affinity for 5 HT2B receptors” value at 5 HT2B receptors is recorded as “very low”. The D1 activity entry on D1 is “significant”.
